Test results from paper PMC7590512, “Lysosomal cathepsin creates chimeric epitopes for diabetogenic CD4 T cells via transpeptidation” (The Journal of Experimental Medicine, 2020).

Columns and labels:
livCat-L and recCat-L = settings: MS/MS
Cat-L [1] = settings: estimated by comparison with control peptide LQTLALWSRMDQL; C-peptide plus WE14 with Cat-L
Text: (§1) For APCs, we used the IA^g7-expressing M12.C3 B cell lymphoma (M12.C3.g7; [Carrasco-Marin et al., 1996]). Four T cell hybridomas were used in various stimulation assays. BDC-2.5 and BDC-10.1 were provided by Dr. Kathryn Haskins (University of Colorado Medical School, Aurora, CO). G7W120 was produced in this laboratory ([Jin et al., 2015]). The insulin B:9-23 reactive AS91 T cell hybridoma ([Levisetti et al., 2007]) was provided by Dr. Emil Unanue (Washington University, St. Louis, MO). T cell hybridomas (10^5 cells) were mixed with either 10^5 paraformaldehyde-fixed APCs or 10^5 unfixed APCs and cultured overnight with various concentrations of synthetic peptide or volumes of a pH-adjusted cathepsin digestion mixture in a final volume of 250 µl. Secreted IL-2 was assayed with a functional assay where the growth and survival of an HT-2 IL-2–dependent cell line was quantified using the dye MTT ([White et al., 2000]) and reported as units per milliliter based on comparison to an IL-2 standard.

BDC-10.1 T cell = settings: for stimulation of BDC-10.1 (IL-2): M12.C3.g7 APCs, peptides at the concentrations used in the digests, average of three experiments
Text: as §1

Cat-L [2] = tested on: Cat-L
[3] = tested on: BDC-2.5, BDC-10.1, and G7W-120 T cells
ChgA-specific T cells = settings: words; ref Stadinski et al., 2010a; cited from earlier work

Substance: C-peptide
- cleavage of mouse C-peptide (livCat-L and recCat-L): The cleavage after TLAL was found in both digests
- C-peptide converted to a stimulatory peptide (Cat-L [1]): 2.5–5%
- stimulation of BDC-10.1 (IL-2) (BDC-10.1 T cell): neither C-peptide nor WE14 alone had any activity

Substance: LQTLALWSRMDQL
- stimulation of BDC-10.1 (IL-2) (BDC-10.1 T cell): highly stimulatory

Substance: RKLLW-NH2
- inhibition of BDC-10.1 response to 0.17 µM LQTLALWSRMDQL by carried-over inhibitor (BDC-10.1 T cell; control for nonspecific inhibition of the stimulation assay): not inhibitory
- inhibition of generation of the active peptide, words (Cat-L [2]; increasing inhibitor concentrations (44-350 µM)): inhibited by RKLLW-NH2 in a dose-dependent manner
- inhibition of generation of the active peptide by Cat-L (Cat-L [2]; inhibitor at same concentration as C-peptide substrate, livCat-L or recCat-L, preincubated 30 min on ice): ~50%

Substance: WSRMDQLAKELTAE [WE14]
- stimulation of three T cells (IL-2) [3]: inactive at the concentrations tested here
- agonism for BDC-2.5 and other ChgA-specific T cells (ChgA-specific T cells): weak agonist
- stimulation of BDC-10.1 (IL-2) (BDC-10.1 T cell): neither C-peptide nor WE14 alone had any activity
